19 compounds from ChEMBL document CHEMBL1122267, “Pyridazinones. 3. Synthesis, antisecretory, and antiulcer activities of 2-cyanoguanidine derivatives” (1983) can be followed below.

Activity calls are given as the source filed them. No cut-off for these calls is given here.

Experiment [1] concerns Rattus norvegicus. Description: Percent inhibition of gastric antisecretory activity in the 4 hr pylorus-ligated rat to that of control at a dose of 100 mg/kg; not statistically significant. The experiment is classed as functional. The settings on record: Stomach.
Experiment [2] is filed under the species Rattus norvegicus. Description: Effective dose for 50 percent inhibition of gastric antisecretory activity in the 4 hr pylorus-ligated rat. The experiment is classed as functional. The settings on record: Stomach.
Experiment [3] deals with Rattus norvegicus. Description: Percent inhibition of gastric antisecretory activity in the 4 hr pylorus-ligated rat to that of control at a dose of 100 mg/kg. The settings on record: Stomach, read-out: Inhibition. The experiment is classed as functional.
In experiment [4] the test system is Rattus norvegicus. Description: Compound was evaluated for antiulcer activity in rats due to stress after oral administration. The experiment is classed as functional.
Experiment [5] relates to Rattus norvegicus. Description: Compound was evaluated for antiulcer activity due to stress in rats after oral administration; not statistically significant. The experiment is classed as functional, organism-based.
Experiment [6] concerns Rattus norvegicus. Kind of experiment: Compound was evaluated for antiulcer activity in rats after oral administration. (stress ulcer); NS means not statistically significant. Type of experiment: functional, organism-based.

For the compound `C/N=C(\NC#N)NCCSCn1nc(N(C)C)ccc1=O`, in the experiment with Rattus norvegicus [1], the inhibition in vivo at 100 mg/kg worked out at 6.9%.
In general, ED50 refers to the dose at which the effect has come halfway, by size or by number of responders. With `C/N=C(\NC#N)NCCSCn1nc(-c2ccc(Cl)cc2)ccc1=O`, the ED50 in the experiment listed under Rattus norvegicus [2] is less than 39.1 mg/kg. Besides, in the experiment with Rattus norvegicus [3], the inhibition in vivo at 100 mg/kg turned out to be 70.3%.
For the compound `C/N=C(\NC#N)NCCSCCCn1nc(-c2ccccc2)ccc1=O`, the inhibition in vivo at 100 mg/kg in the experiment on Rattus norvegicus [1] was found to be 18.2%. Moreover, the ED50 in the experiment with Rattus norvegicus [4] is more than 100 mg/kg.
As for `CC/N=C(\NC#N)NCCSCCCn1nc(-c2ccccc2)ccc1=O`, the inhibition in vivo at 100 mg/kg in the experiment with Rattus norvegicus [1] was determined as 22.9%.
For the compound `C/N=C(\NC#N)NCCCCn1nc(-c2ccccc2)ccc1=O`, the ED50 in the experiment listed under Rattus norvegicus [2] turned out to be 32.4 mg/kg; in the experiment on Rattus norvegicus [4], 38.5 mg/kg. Besides, the inhibition in vivo at 100 mg/kg with Rattus norvegicus [3] worked out at 79%.
For `CCC/N=C(\NC#N)NCCSCn1nc(-c2ccccc2)ccc1=O`, in that order: more than 100 mg/kg, 97.6 mg/kg and 37.3%.
For the compound `C/N=C(\NC#N)NCCCOCn1nc(-c2ccccc2)ccc1=O`, the ED50 entry in the experiment with Rattus norvegicus [5] was “inactive”. In the experiment listed under Rattus norvegicus [2], this compound showed an ED50 of less than 100 mg/kg. In the experiment with Rattus norvegicus [3], the inhibition in vivo at 100 mg/kg is 49.8%.
As to `C/N=C(\NC#N)NCCSCn1nc(-c2ccccc2)ccc1=O`, the ED50 was less than 30.5 mg/kg in the experiment listed under Rattus norvegicus [2] and 28.5 mg/kg in the experiment on Rattus norvegicus [4]. In the experiment on Rattus norvegicus [3], the inhibition in vivo at 100 mg/kg is 83.3%.
For the compound `C/N=C(\NC#N)NCCCCOCn1nc(-c2ccccc2)ccc1=O`, in the experiment with Rattus norvegicus [5], the ED50 result was “inactive”. The compound also had an ED50 in the experiment listed under Rattus norvegicus [2] of more than 100 mg/kg. Also, the inhibition in vivo at 100 mg/kg in the experiment on Rattus norvegicus [3] was determined as 32.8%.
As for `C/N=C(\NC#N)NCCSCCn1nc(-c2ccccc2)ccc1=O`, the ED50 was less than 80 mg/kg in the experiment listed under Rattus norvegicus [2] and 77.6 mg/kg in the experiment on Rattus norvegicus [4]. In addition, the inhibition in vivo at 100 mg/kg in the experiment on Rattus norvegicus [3] is 58.3%.
Compound `CC/N=C(\NC#N)NCCSCn1nc(C)ccc1=O` showed an ED50 in the experiment filed under Rattus norvegicus [2] of more than 100 mg/kg. For the same compound, the inhibition in vivo at 100 mg/kg in the experiment with Rattus norvegicus [3] was 26.7%.
With `C/N=C(\NC#N)NCCSCn1nc(C)ccc1=O`, the ED50 in the experiment listed under Rattus norvegicus [2] and in the experiment with Rattus norvegicus [4] was more than 100 mg/kg each time. Besides, the inhibition in vivo at 100 mg/kg in the experiment with Rattus norvegicus [3] stood at 30%.
In the case of `C/N=C(\NC#N)NCCSCn1nc(N2CCOCC2)ccc1=O`, the inhibition in vivo at 100 mg/kg with Rattus norvegicus [1] was -12.5%. Also, the ED50 result with Rattus norvegicus [6] was “inactive”.
The compound `CC/N=C(\NC#N)NCCSCCn1nc(-c2ccccc2)ccc1=O` yielded an ED50 in the experiment filed under Rattus norvegicus [2] of less than 100 mg/kg. The inhibition in vivo at 100 mg/kg in the experiment with Rattus norvegicus [3] amounted to 50.8%.
Turning to `C/N=C(\NC#N)NCCOCn1nc(-c2ccccc2)ccc1=O`, the ED50 in the experiment filed under Rattus norvegicus [2] is less than 82.3 mg/kg; with Rattus norvegicus [4] it was more than 100 mg/kg. For the same compound, the inhibition in vivo at 100 mg/kg in the experiment on Rattus norvegicus [3] was determined as 60.6%.
In turn, `C/N=C(\NC#N)NCCSCn1nc(-c2ccc(C)cc2)ccc1=O` had an ED50 in the experiment listed under Rattus norvegicus [2] of less than 53.8 mg/kg. Further, in the experiment on Rattus norvegicus [3], the inhibition in vivo at 100 mg/kg was 62.5%.
As to `CN/C(=N\CCSCc1nc[nH]c1C)NC#N` [CIMETIDINE], the figures for the ED50 in the experiment filed under Rattus norvegicus [2] and with Rattus norvegicus [4] were 60.3 mg/kg and 43.2 mg/kg, respectively. In addition, the inhibition in vivo at 100 mg/kg in the experiment with Rattus norvegicus [3] came to 80.6%.
In the case of `CC/N=C(\NC#N)NCCSCn1nc(-c2ccccc2)ccc1=O`, the values for the ED50 in the experiment filed under Rattus norvegicus [2] and in the experiment with Rattus norvegicus [4] were less than 100 mg/kg and 63.1 mg/kg, respectively. The inhibition in vivo at 100 mg/kg in the experiment on Rattus norvegicus [3] amounted to 50.1%.
In the experiment listed under Rattus norvegicus [2], `CCC/N=C(\NC#N)NCCSCCn1nc(-c2ccccc2)ccc1=O` had an ED50 of more than 100 mg/kg. Moreover, the inhibition in vivo at 100 mg/kg with Rattus norvegicus [3] was found to be 33.5%.
